A short description of test [1]: Expert taster evaluation in beef bouillon. As to conditions: base alone: salty, umami, powdery. The procedure:
(§1) Samples were evaluated by expert tasters. Tasters were asked to describe the samples focusing on authentic taste, mouthfeel, fullness, salty-ness, salivation, umami, sweetness, juiciness, richness, long lastingness and fattiness
Comparison in Beef Bouillon
Base is Maggi beef bouillon 1 tablet in 500 ml of hot water

Test [2] can be described thus: Expert taster evaluation in a mango juice drink. Particulars: 1 ppm in mango juice drink base (8% sucrose, 0.1% citric acid, 1% clear mango juice, mango flavour 0.05%); base alone: fruity mango. The procedure:
as §1
Comparison in a Mango Juice Drink
Base is 8% sucrose, 0.1% citric acid, 1% clear mango juice, proprietary mango flavour @ 0.05%

A short description of test [3]: Expert taster evaluation in orange beverage. As to conditions: 1 ppm in orange beverage (water, 7% sugar, 0.1% citric acid, orange flavour 0.06%); base alone: orange, fruity, slightly candy. The protocol: as §1
Base is water, 7% sugar, 0.1% citric acid, proprietary orange flavour @ 0.06%

Test [4] is described as follows: Expert taster evaluation in lemon beverage. As to conditions: 1 ppm in lemon beverage (water, 7% sucrose, 0.15% citric acid, lemon flavor), base alone: floral, citral. The protocol: as §1
Basis water, 7% sucrose, 0.15% citric acid, proprietary lemon flavor

Setting [5] is: 1 ppm in Maggi beef bouillon (1 tablet in 500 ml hot water).

“Also recorded” adds a separate entry of the source.

We go through five compounds from US10913922B2, “N-acylated methionine derivatives as food flavoring compounds” (Givaudan S.A., priority 2012, dated 2021).

`CCCCCCCC(=O)N[C@@H](CCSC)C(=O)O` [C8:0-met]: the “taste description by expert tasters” value was “more salty, no additional fullness” in test [1] (setting [5]) and “green fresh, no additional body” in test [2].
Turning to `CCCCCC/C=C\CCCC(=O)NC(CCSC)C(=O)O` (centres unmarked) [C12:1-met], the “taste description by expert tasters” value in test [3] is reported as “nice orange, fresh”; in test [1] (setting [5]) it was “more salty”; in test [2], “ripe full, more juicy, slightly metallic”; in test [4], “fresh, slightly more citral”.
Consider `CCCCCCCCCCCCCCCC(=O)NC(CCSC)C(=O)O` (centres unmarked) [C16:0-met], for which the “taste description by expert tasters” value in test [3] is “slightly metallic, fresh”; in test [1] (setting [5]), “salty, full, nice salivating, lingering”; in test [2] it was “fatty, full body, juicy, metallic”.
For the compound `CCCCCCCC/C=C\CCCCCCCC(=O)NC(CCSC)C(=O)O` (centres unmarked) [C18:1-met], the “taste description by expert tasters” value in test [3] is “very juicy fresh, authentic, juicy”; in test [1] (setting [5]) it was “very strong salty impact and aftertaste; also recorded: very strong salty impact and aftertaste, more fatty, mouthfeel, lingering full bodied”; in test [1] (25 ppb in Maggi beef bouillon), “more peppery, more salty”; in test [1] (50 ppb in Maggi beef bouillon), “more salty, more bouillon taste”; in test [2], “sweeter, juicy, salivating”; in test [4], “fresh, less floral, very juicy, very authentic”.
With `CCCCC/C=C\C/C=C\CCCCCCCC(=O)NC(CCSC)C(=O)O` (centres unmarked) [C18:2-met], the “taste description by expert tasters” value in test [1] (setting [5]) was “salivating salty, umami”; in test [2], “fresh nice juicy”.
